Results taken from publication PMC8704709, “Improved Anticancer Activities of a New Pentafluorothio-Substituted Vorinostat-Type Histone Deacetylase Inhibitor” (Pharmaceuticals, 2021).

Tests used:
Jurkat cells = assay: IC50 by Annexin-V/7AAD dual staining, flow cytometry; assay type: cell-based; conditions: Homo sapiens, as determined after 48 h, means ± SEM, n ≥ 3, read-out: Growth inhibitory activity IC50, Jurkat
Protocol: Stock solutions (10 mM) prepared by dissolution in DMSO were stored at −20 °C. Working solutions were always freshly prepared before each experiment by dilution of stock solution with medium. The final DMSO concentration never exceeded 0.25%. Treatment-induced changes in cell number were determined by crystal violet (N-hexamethylpararosaniline from Sigma Aldrich) staining. 1000 cells/well (DU145) or 1500 cells/well (Hep-G2) were seeded in 96-well plates and maintained for adherence in an incubator (37 °C, 5% CO2, humidified atmosphere) for 48 h prior to the beginning of the treatment. […] Thereafter, the cells were fixed with 1% glutaraldehyde and stained with 0.1% crystal violet. The unbound dye was removed by rinsing with water. Bound crystal violet was solubilized with 0.2% Triton X-100 (Sigma-Aldrich). Light extinction of crystal violet, which increases linearly with the cell number, was analyzed at 570 nm using an ELISA-Reader (Dynex Technologies, Denkendorf, Germany). For T-cell leukemia/lymphoma cell lines apoptosis was determined using dual staining for Annexin-V and 7AAD via flow cytometry.

[1] = test system: DU145 prostate tumor cells; assay: Scratch assay (migration); assay type: cell-based, human; conditions: 5 µM and 10 µM, 24 h
Protocol: To investigate the anti-migratory effects of SF5-SAHA scratch assays were performed as described. In brief, cells were grown to sub-confluency in 6-well plates. The cell monolayer was then scratched using a pipet tip. Cells at the edge of this artificial gap migrate into the cell-free area to close the gap in a time-dependent manner. DU145 cells were seeded at a density 1.5 × 10^5 cells/well and treated with SF5-SAHA (0–10 µM) for 24 h and bright-field images were taken before and after 12 h and 24 h of treatment using a an EVOS M5000 microscope (Thermo Fischer Scientific, Waltham MA, USA). The experiments were performed n = 3.

Q: With `O=C(CCCCCCC(=O)Nc1ccc(S(F)(F)(F)(F)F)cc1)NO` [SF5-SAHA] as the molecule, how does the IC50 (Jurkat cells) read?
A: The IC50 was 760 ± 60 nM.

Q: And the “migratory activity (scratch assay)” value [1]?
A: Its value is “reduced migratory activity”.
